Source: ChEMBL document CHEMBL1136090, “Discovery of a potent and selective series of pyrazole bacterial methionyl-tRNA synthetase inhibitors” (Bioorg Med Chem Lett, 2003)

What was measured:
[1] = tested on: Staphylococcus aureus subsp. aureus MW2; experiment: Selectivity ratio for inhibition of human Methionyl-tRNA synthetase to that of Staphylococcus aureus Methionyl-tRNA synthetase.
[2] = target: T1, Methionine--tRNA ligase, cytoplasmic (Homo sapiens, UniProt P56192); experiment: Inhibitory activity against human methionyl-tRNA synthetase (hMetRS).
T1 sequence (P56192 whole entry): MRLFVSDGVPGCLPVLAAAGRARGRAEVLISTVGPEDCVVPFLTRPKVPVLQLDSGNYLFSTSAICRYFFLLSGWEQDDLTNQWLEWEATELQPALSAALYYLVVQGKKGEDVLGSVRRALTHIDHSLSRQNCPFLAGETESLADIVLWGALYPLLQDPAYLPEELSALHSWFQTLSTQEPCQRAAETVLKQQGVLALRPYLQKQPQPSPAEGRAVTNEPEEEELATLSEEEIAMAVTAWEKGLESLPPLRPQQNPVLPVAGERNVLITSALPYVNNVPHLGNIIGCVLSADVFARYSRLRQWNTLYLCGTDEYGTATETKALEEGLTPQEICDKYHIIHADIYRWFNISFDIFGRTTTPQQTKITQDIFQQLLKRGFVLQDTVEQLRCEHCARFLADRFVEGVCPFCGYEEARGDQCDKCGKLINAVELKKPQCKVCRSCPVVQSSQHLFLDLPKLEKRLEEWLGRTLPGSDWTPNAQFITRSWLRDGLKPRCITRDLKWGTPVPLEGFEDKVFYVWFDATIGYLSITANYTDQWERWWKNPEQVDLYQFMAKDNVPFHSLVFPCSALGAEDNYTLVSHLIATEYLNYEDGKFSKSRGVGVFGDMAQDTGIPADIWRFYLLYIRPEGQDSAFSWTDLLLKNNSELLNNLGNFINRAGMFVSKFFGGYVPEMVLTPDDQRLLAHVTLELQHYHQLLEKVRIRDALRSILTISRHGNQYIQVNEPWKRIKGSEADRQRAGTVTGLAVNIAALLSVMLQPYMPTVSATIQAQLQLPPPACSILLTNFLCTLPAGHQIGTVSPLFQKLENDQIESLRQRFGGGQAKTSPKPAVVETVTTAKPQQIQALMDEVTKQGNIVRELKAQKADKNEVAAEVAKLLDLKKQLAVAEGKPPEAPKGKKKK

| Ratio [1] | IC50 [2] [µM] | Structure (SMILES) |
| --- | --- | --- |
| 2 | 11.9 | O=C(O)c1cc(-c2ccc(-c3ccc(Cl)cc3Cl)cc2)n(-c2ccc(Cl)cc2Cl)n1 |
| > 159 | > 100 | O=C(O)c1cc(-c2ccc(-c3ccc(Cl)cc3Cl)cc2)n(-c2ccccn2)n1 |
| 45 | 46.4 | CCn1nc(C(=O)O)cc1-c1ccc(-c2ccc(Cl)cc2Cl)cc1 |
| 52 | 26.2 | O=C(O)c1cc(-c2ccc(-c3ccc(Cl)cc3Cl)cc2)n(Cc2ccncc2)n1 |
| > 22 | > 100 | O=C(O)c1cc(-c2ccc(-c3ccc(Cl)cc3Cl)cc2)n(CCO)n1 |
| 29 | 100 | O=C(O)Cn1nc(C(=O)O)cc1-c1ccc(-c2ccc(Cl)cc2Cl)cc1 |
| 157 | 47 | O=C(O)c1cc(-c2ccc(-c3ccc(Cl)cc3Cl)cc2)n(-c2cccnc2)n1 |
| > 152 | > 100 | O=C(O)c1cc(-c2ccc(-c3ccc(Cl)cc3Cl)cc2)n(Cc2cccnc2)n1 |

More lines, now with the values behind:

| Structure (SMILES) | Ratio [1] | IC50 [2] [µM] |
| --- | --- | --- |
| Clc1ccc(-c2ccc(-c3cc(-c4nnn[nH]4)nn3-c3cccnc3)cc2)c(Cl)c1 | 82 | 10.6 |
| COc1ccc(-n2nc(C(=O)O)cc2-c2ccc(-c3ccc(Cl)cc3Cl)cc2)cc1 | > 10 | > 100 |
| O=C(O)c1cc(-c2ccc(-c3ccc(C(F)(F)F)cc3)cc2)n(-c2ccc(Cl)cc2Cl)n1 | 1 | 33.5 |
| O=C(O)c1cccc(-c2ccc(-c3cc(C(=O)O)nn3-c3ccc(Cl)cc3Cl)cc2)c1 | 1 | 40.9 |
| O=C(NCc1nn[nH]n1)c1cc(-c2ccc(-c3ccc(Cl)cc3Cl)cc2)n(-c2cccnc2)n1 | 106 | 13.8 |
| O=C(O)c1cc(-c2ccc(-c3ccc(F)c(Cl)c3)cc2)n(-c2ccc(Cl)cc2Cl)n1 | 1 | 20.9 |
| NC(=O)c1cc(-c2ccc(-c3ccc(Cl)cc3Cl)cc2)n(-c2ccccn2)n1 | > 34 | > 100 |
| O=C(O)c1cc(-c2ccc(-c3ccccc3)cc2)n(-c2ccc(Cl)cc2Cl)n1 | 1 | 44.3 |
| O=C(O)c1cc(-c2ccc(-c3ccc(F)cc3)cc2)n(-c2ccc(Cl)cc2Cl)n1 | 1 | 41.3 |
| O=C(O)c1cc(-c2ccc(-c3ccc(Cl)cc3Cl)cc2)nn1Cc1ccccn1 | 8 | 22.3 |
